According to ChEMBL document CHEMBL5385846, “Discovery and development of palmatine analogues as anti-NASH agents by activating farnesoid X receptor (FXR)” (Eur J Med Chem, 2023):
Activity calls are given as the source filed them. The rule behind the calls is not given here.

Key:
[1] = Half life in human liver microsomes at 1 micromol/L measured upto 60 mins in presence of NADPH by LC-MS/MS analysis; type: ADME, Microsome; details: dose 1 µmol/L
[2] = system: Mus musculus; assay: Anti-inflammatory activity in CDAHFD induced C57BL/6N mouse liver injury model assessed as downregulation of IL-1beta protein expression in liver at 200 mg/kg,po qd administration for 4 weeks by Western blotting analysis; type: functional, organism-based
[3] = system: Mus musculus; assay: Anti-inflammatory activity in CDAHFD induced C57BL/6N mouse liver injury model assessed as downregulation of IL-6 mRNA expression in liver at 200 mg/kg,po qd administration for 4 weeks by qRT-PCR analysis; type: functional, organism-based
[4] = system: Mus musculus; assay: Anti-inflammatory activity in CDAHFD induced C57BL/6N mouse liver injury model assessed as downregulation of IL-1beta mRNA expression in liver at 200 mg/kg,po qd administration for 4 weeks by qRT-PCR analysis; type: functional, organism-based
[5] = system: Mus musculus; assay: Anti-inflammatory activity in CDAHFD induced C57BL/6N mouse liver injury model assessed as reduction in inflammatory cell infiltration in liver at 200 mg/kg,po qd administration for 4 weeks by hematoxylin and eosin staining based assay; type: functional, organism-based
[6] = system: Mus musculus; assay: Antifibrotic activity in CDAHFD induced non-alcoholic steatohepatitis C57BL/6N mouse model assessed as downregulation of TIMP1 protein expression at 200 mg/kg,po qd administration for 4 weeks by Western blotting analysis; type: functional, organism-based
[7] = system: Mus musculus; assay: Antifibrotic activity in CDAHFD induced non-alcoholic steatohepatitis C57BL/6N mouse model assessed as downregulation of MMP2 protein expression at 200 mg/kg,po qd administration for 4 weeks by Western blotting analysis; type: functional, organism-based
[8] = system: Mus musculus; assay: Antifibrotic activity in CDAHFD induced non-alcoholic steatohepatitis C57BL/6N mouse model assessed as downregulation of TIMP1 mRNA expression at 200 mg/kg,po qd administration for 4 weeks by qRT-PCR analysis; type: functional, organism-based
[9] = system: Mus musculus; assay: Antifibrotic activity in CDAHFD induced non-alcoholic steatohepatitis C57BL/6N mouse model assessed as decrease in collagen area at 200 mg/kg,po qd administration for 4 weeks by Masson's trichrome staining based analysis; type: functional, organism-based
[10] = system: Mus musculus; assay: Hepatoprotective activity in CDAHFD induced C57BL/6N mouse liver injury model assessed as increase in glutathione peroxidase level at 200 mg/kg,po qd administration for 4 weeks; type: functional, organism-based
[11] = system: Mus musculus; assay: Hepatoprotective activity in CDAHFD induced C57BL/6N mouse liver injury model assessed as reduction in free cholesterol level at 200 mg/kg,po qd administration for 4 weeks; type: functional, organism-based
[12] = system: Mus musculus; assay: Hepatoprotective activity in CDAHFD induced C57BL/6N mouse liver injury model assessed as reduction in hepatic steatosis at 200 mg/kg,po qd administration for 4 weeks by hematoxylin and eosin staining based assay; type: functional, organism-based
[13] = system: Mus musculus; assay: Hepatoprotective activity in CDAHFD induced C57BL/6N mouse liver injury model assessed as decrease in triglyceride level at 200 mg/kg,po qd administration for 4 weeks; type: functional, organism-based
[14] = system: Mus musculus; assay: Hepatoprotective activity in CDAHFD induced C57BL/6N mouse liver injury model assessed as increase in glucose level at 200 mg/kg,po qd administration for 4 weeks; type: functional, organism-based
[15] = system: Mus musculus; assay: Hepatoprotective activity in CDAHFD induced C57BL/6N mouse liver injury model assessed as decrease in total bilirubin level at 200 mg/kg,po qd administration for 4 weeks; type: functional, organism-based
[16] = system: Mus musculus; assay: Hepatoprotective activity in CDAHFD induced C57BL/6N mouse liver injury model assessed as decrease in LDL level at 200 mg/kg,po qd administration for 4 weeks; type: functional, organism-based
[17] = system: Mus musculus; assay: Hepatoprotective activity in CDAHFD induced C57BL/6N mouse liver injury model assessed as decrease in ALT level at 200 mg/kg,po qd administration for 4 weeks; type: functional, organism-based
[18] = system: Mus musculus; assay: Hepatoprotective activity in CDAHFD induced C57BL/6N mouse liver injury model assessed as decrease in AST level at 200 mg/kg,po qd administration for 4 weeks; type: functional, organism-based
[19] = Acute toxicity in Kunming mouse assessed as effect on […] level at 250 to 1000 mg/kg,po administration; type: organism-based; details: in vivo, dose 250-1000 mg/kg
[20] = Acute toxicity in Kunming mouse assessed as effect on blood urea nitrogen level at 250 to 1000 mg/kg,po administration; type: organism-based; details: in vivo, dose 250-1000 mg/kg
[21] = Acute toxicity in Kunming mouse assessed as effect on ALT level at 250 to 1000 mg/kg,po administration; type: organism-based; details: in vivo, dose 250-1000 mg/kg
[22] = system: LX-2; assay: Antifibrotic activity in TGF-beta1 induced human LX2 cells assessed as downregulation of TGF-beta1 mRNA expression incubated for 24 hrs by qRT-PCR analysis; type: functional, cell-based
[23] = system: LX-2; assay: Antifibrotic activity in TGF-beta1 induced human LX2 cells assessed as downregulation of COL1A1 mRNA expression incubated for 24 hrs by qRT-PCR analysis; type: functional, cell-based
[24] = system: LX-2; assay: Antifibrotic activity in TGF-beta1 induced human LX2 cells assessed as downregulation of TGF-beta1 protein expression incubated for 24 hrs by western blotting analysis; type: functional, cell-based
[25] = Metabolic stability in Sprague-Dawley rat liver microsomes assessed as microsomal intrinsic clearance at 1 micromol/L measured upto 60 mins in presence of NADPH by LC-MS/MS analysis; type: ADME, Microsome; details: dose 1 µmol/L, read-out: CLH
[26] = Half life in Sprague-Dawley rat liver microsomes at 1 micromol/L measured upto 60 mins in presence of NADPH by LC-MS/MS analysis; type: ADME, Microsome; details: dose 1 µmol/L
[27] = system: LX-2; assay: Antifibrotic activity in TGF-beta1 induced human LX2 cells assessed as downregulation of TIMP1 protein expression incubated for 24 hrs by western blotting analysis; type: functional, cell-based
[28] = Cytotoxicity against human LX2 cells assessed as inhibition of cell growth; type: toxicity, cell-based, LX-2
[29] = system: THP-1; assay: Anti-inflammatory activity in PMA differentiated human THP-1 cells assessed as downregulation of IL-1beta protein expression at 5 micromol/L incubated for 4 hrs followed by LPS and Nigericin addition for 3.5 hrs by Western blotting analysis; type: functional, cell-based; details: dose 5.0 µmol/L, time 7.5 hrs
[30] = system: THP-1; assay: Anti-inflammatory activity in PMA differentiated human THP-1 cells assessed as downregulation of caspase-1 protein expression at 10 micromol/L incubated for 4 hrs followed by LPS and Nigericin addition for 3.5 hrs by Western blotting analysis; type: functional, cell-based; details: dose 10.0 µmol/L, time 7.5 hrs
[31] = system: Rattus norvegicus; assay: Hepatoprotective activity in bile duct ligation induced Sprague-Dawley rat liver injury model assessed as decrease in ALT level at 200 mg/kg,po qd administration for 14 days; type: functional, organism-based; details: time 14.0 day
[32] = system: Rattus norvegicus; assay: Hepatoprotective activity in bile duct ligation induced Sprague-Dawley rat liver injury model assessed as decrease in ALP level at 200 mg/kg,po qd administration for 14 days; type: functional, organism-based; details: time 14.0 day
[33] = system: Rattus norvegicus; assay: Hepatoprotective activity in bile duct ligation induced Sprague-Dawley rat liver injury model assessed as decrease in total bilirubin level at 200 mg/kg,po qd administration for 14 days; type: functional, organism-based; details: time 14.0 day
[34] = system: Rattus norvegicus; assay: Antifibrotic activity in bile duct ligation induced Sprague-Dawley rat liver fibrosis model assessed as downregulation of COL1A1 mRNA expression at 200 mg/kg,po qd administration for 14 days by qRT-PCR analysis; type: functional, organism-based; details: time 14.0 day

COc1cc2c(cc1OC)-c1cc3ccc(OC)c(OCc4cccc(C)c4)c3c[n+]1CC2.[Br-]
half-life at 1 µM [1]: 53.3 min
Activity [2]: Active
Activity [3]: Active
Activity [4]: Active
Activity [5]: Active
Activity [6]: Active
Activity [7]: Active
Activity [8]: Active
Activity [9]: Active
Activity [10]: Active
Activity [11]: Active
Activity [12]: Active
Activity [13]: inactive
Activity [14]: Active
Activity [15]: Active
Activity [16]: Active
Activity [17]: Active
Activity [18]: Active
Activity [19]: Non-Toxic
Activity [20]: Non-Toxic
Activity [21]: Non-Toxic
Activity [22]: Dose-Dependent Effect
Activity [23]: Dose-Dependent Effect
Activity [24]: Dose-Dependent Effect
microsomal CLint at 1 µM [25]: 188 µL/min/mg
half-life at 1 µM [26]: 7.4 min
Activity [27]: Dose-Dependent Effect
CC50 [28]: 70.4 µM
Activity [29]: Active
Activity [30]: Active
Activity [31]: Active
Activity [32]: Active
Activity [33]: Active
Activity [34]: Active
